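Five concentrations, 48 hours, 96-well plates. At the GI50, growth is halved. TGI: concentration producing complete growth inhibition.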
Columns and labels:
Test in all cases: NCI anticancer screen, dose series, 48 h
786-0 renal = tested on: 786-0 renal
A498 renal = tested on: A498 renal
A549 NSCLC = tested on: A549 NSCLC
ACHN renal = tested on: ACHN renal
CAKI-1 renal = tested on: CAKI-1 renal
CCRF-CEM leukemia = tested on: CCRF-CEM leukemia
COLO 205 colon = tested on: COLO 205 colon
DLD-1 colon = tested on: DLD-1 colon
DMS 114 small cell lung = tested on: DMS 114 small cell lung
DMS 273 small cell lung = tested on: DMS 273 small cell lung
EKVX NSCLC = tested on: EKVX NSCLC
HCC-2998 colon = tested on: HCC-2998 colon
HCT-116 colon = tested on: HCT-116 colon
HCT-15 colon = tested on: HCT-15 colon
HL-60(TB) leukemia = tested on: HL-60(TB) leukemia
HOP-62 NSCLC = tested on: HOP-62 NSCLC
HOP-92 NSCLC = tested on: HOP-92 NSCLC
HT29 colon = tested on: HT29 colon
IGROV1 ovarian = tested on: IGROV1 ovarian
K-562 leukemia = tested on: K-562 leukemia
KM12 colon = tested on: KM12 colon
KM20L2 colon = tested on: KM20L2 colon
LOX IMVI melanoma = tested on: LOX IMVI melanoma
LXFL 529 NSCLC = tested on: LXFL 529 NSCLC
M14 melanoma = tested on: M14 melanoma
M19-MEL melanoma = tested on: M19-MEL melanoma
MALME-3M melanoma = tested on: MALME-3M melanoma
MOLT-4 leukemia = tested on: MOLT-4 leukemia
NCI-H226 lung = tested on: NCI-H226 lung
NCI-H23 lung = tested on: NCI-H23 lung
NCI-H460 lung = tested on: NCI-H460 lung
NCI-H522 lung = tested on: NCI-H522 lung
OVCAR-3 ovarian = tested on: OVCAR-3 ovarian
OVCAR-4 ovarian = tested on: OVCAR-4 ovarian
OVCAR-5 ovarian = tested on: OVCAR-5 ovarian
OVCAR-8 ovarian = tested on: OVCAR-8 ovarian
RPMI-8226 leukemia = tested on: RPMI-8226 leukemia
RXF-631 renal = tested on: RXF-631 renal
SF-268 CNS = tested on: SF-268 CNS
SF-295 CNS = tested on: SF-295 CNS
SF-539 CNS = tested on: SF-539 CNS
SK-MEL-2 melanoma = tested on: SK-MEL-2 melanoma
SK-MEL-28 melanoma = tested on: SK-MEL-28 melanoma
SK-MEL-5 melanoma = tested on: SK-MEL-5 melanoma
SK-OV-3 ovarian = tested on: SK-OV-3 ovarian
SN12C renal = tested on: SN12C renal
SNB-19 CNS = tested on: SNB-19 CNS
SNB-75 CNS = tested on: SNB-75 CNS
SW-620 colon = tested on: SW-620 colon
TK-10 renal = tested on: TK-10 renal
U251 CNS = tested on: U251 CNS
UACC-257 melanoma = tested on: UACC-257 melanoma
UACC-62 melanoma = tested on: UACC-62 melanoma
UO-31 renal = tested on: UO-31 renal
XF 498 CNS = tested on: XF 498 CNS
BT-549 breast = tested on: BT-549 breast
DU-145 prostate = tested on: DU-145 prostate
HS 578T breast = tested on: HS 578T breast
MCF7 breast = tested on: MCF7 breast
MDA-MB-231 breast = tested on: MDA-MB-231 breast
MDA-MB-435 = tested on: MDA-MB-435
MDA-N = tested on: MDA-N
NCI/ADR-RES ovarian = tested on: NCI/ADR-RES ovarian
PC-3 prostate = tested on: PC-3 prostate
RXF 393 renal = tested on: RXF 393 renal
SNB-78 CNS = tested on: SNB-78 CNS
SR leukemia = tested on: SR leukemia
T-47D breast = tested on: T-47D breast

For Cc1cc(N(CCC#N)CCC#N)ccc1/C=C\C(=O)Nc1ccccc1, the TGI (786-0 renal) was over 100 µM, the TGI (A498 renal) was over 100 µM and the TGI (A549 NSCLC) was over 100 µM. It also gave a TGI (ACHN renal) of over 100 µM, a TGI (CAKI-1 renal) of over 100 µM and a TGI (CCRF-CEM leukemia) of over 100 µM. The TGI (COLO 205 colon) was over 100 µM, the TGI (DLD-1 colon) was over 100 µM and the TGI (DMS 114 small cell lung) was over 100 µM. The TGI (DMS 273 small cell lung) was over 100 µM, the TGI (EKVX NSCLC) was over 100 µM and the TGI (HCC-2998 colon) was 80.5 µM. For the same molecule, the TGI (HCT-116 colon) was over 100 µM, the TGI (HCT-15 colon) was over 100 µM and the TGI (HL-60(TB) leukemia) was over 100 µM. The TGI (HOP-62 NSCLC) was over 100 µM, the TGI (HOP-92 NSCLC) was over 100 µM and the TGI (HT29 colon) was over 100 µM. The TGI (IGROV1 ovarian) was over 100 µM, the TGI (K-562 leukemia) was over 100 µM and the TGI (KM12 colon) was over 100 µM. It also gave a TGI (KM20L2 colon) of over 100 µM, a TGI (LOX IMVI melanoma) of over 100 µM and a TGI (LXFL 529 NSCLC) of over 100 µM. The TGI (M14 melanoma) was over 100 µM, the TGI (M19-MEL melanoma) was over 100 µM and the TGI (MALME-3M melanoma) was over 100 µM. The TGI (MOLT-4 leukemia) was over 100 µM, the TGI (NCI-H226 lung) was over 100 µM and the TGI (NCI-H23 lung) was over 100 µM. It also gave a TGI (NCI-H460 lung) of over 100 µM, a TGI (NCI-H522 lung) of over 100 µM and a TGI (OVCAR-3 ovarian) of over 100 µM. For the same molecule, the TGI (OVCAR-4 ovarian) was over 100 µM, the TGI (OVCAR-5 ovarian) was over 100 µM and the TGI (OVCAR-8 ovarian) was over 100 µM. It also gave a TGI (RPMI-8226 leukemia) of over 100 µM, a TGI (RXF-631 renal) of over 100 µM and a TGI (SF-268 CNS) of over 100 µM. It also gave a TGI (SF-295 CNS) of over 100 µM, a TGI (SF-539 CNS) of over 100 µM and a TGI (SK-MEL-2 melanoma) of over 100 µM. It also gave a TGI (SK-MEL-28 melanoma) of over 100 µM, a TGI (SK-MEL-5 melanoma) of over 100 µM and a TGI (SK-OV-3 ovarian) of over 100 µM. The TGI (SN12C renal) was over 100 µM, the TGI (SNB-19 CNS) was over 100 µM and the TGI (SNB-75 CNS) was over 100 µM. It also gave a TGI (SW-620 colon) of over 100 µM, a TGI (TK-10 renal) of over 100 µM and a TGI (U251 CNS) of over 100 µM. For the same molecule, the TGI (UACC-257 melanoma) was over 100 µM, the TGI (UACC-62 melanoma) was over 100 µM and the TGI (UO-31 renal) was over 100 µM. The TGI (XF 498 CNS) was over 100 µM.
For O=P(O)(NCCCl)NCCCl, the TGI (786-0 renal) was over 100 µM, the TGI (A498 renal) was over 100 µM and the TGI (A549 NSCLC) was over 100 µM. The TGI (ACHN renal) was over 100 µM, the TGI (BT-549 breast) was over 100 µM and the TGI (CAKI-1 renal) was over 100 µM. It also gave a TGI (CCRF-CEM leukemia) of over 100 µM, a TGI (COLO 205 colon) of over 100 µM and a GI50 (DLD-1 colon) of over 100 µM. It also gave a TGI (DLD-1 colon) of over 100 µM, a GI50 (DMS 114 small cell lung) of 99.1 µM and a TGI (DMS 114 small cell lung) of over 100 µM. For the same molecule, the TGI (DMS 273 small cell lung) was over 100 µM, the TGI (DU-145 prostate) was over 100 µM and the GI50 (EKVX NSCLC) was over 100 µM. It also gave a TGI (EKVX NSCLC) of over 100 µM, a TGI (HCC-2998 colon) of over 100 µM and a TGI (HCT-116 colon) of over 100 µM. It also gave a GI50 (HCT-15 colon) of over 100 µM, a TGI (HCT-15 colon) of over 100 µM and a TGI (HL-60(TB) leukemia) of over 100 µM. It also gave a TGI (HOP-62 NSCLC) of over 100 µM, a TGI (HOP-92 NSCLC) of over 100 µM and a TGI (HS 578T breast) of over 100 µM. For the same molecule, the GI50 (HT29 colon) was over 100 µM, the TGI (HT29 colon) was over 100 µM and the TGI (IGROV1 ovarian) was over 100 µM. It also gave a TGI (K-562 leukemia) of over 100 µM, a GI50 (KM12 colon) of over 100 µM and a TGI (KM12 colon) of over 100 µM. For the same molecule, the TGI (LOX IMVI melanoma) was over 100 µM, the GI50 (LXFL 529 NSCLC) was over 100 µM and the TGI (LXFL 529 NSCLC) was over 100 µM. It also gave a GI50 (M14 melanoma) of 5.78 µM, a TGI (M14 melanoma) of over 100 µM and a GI50 (M19-MEL melanoma) of over 100 µM. It also gave a TGI (M19-MEL melanoma) of over 100 µM, a TGI (MALME-3M melanoma) of over 100 µM and a TGI (MCF7 breast) of over 100 µM. For the same molecule, the TGI (MDA-MB-231 breast) was over 100 µM, the TGI (MDA-MB-435) was over 100 µM and the TGI (MDA-N) was over 100 µM. It also gave a TGI (MOLT-4 leukemia) of over 100 µM, a TGI (NCI-H226 lung) of over 100 µM and a TGI (NCI-H23 lung) of over 100 µM. For the same molecule, the GI50 (NCI-H460 lung) was 4.03 µM, the TGI (NCI-H460 lung) was over 100 µM and the TGI (NCI-H522 lung) was over 100 µM. The TGI (NCI/ADR-RES ovarian) was over 100 µM, the GI50 (OVCAR-3 ovarian) was over 100 µM and the TGI (OVCAR-3 ovarian) was over 100 µM. For the same molecule, the TGI (OVCAR-4 ovarian) was over 100 µM, the GI50 (OVCAR-5 ovarian) was over 100 µM and the TGI (OVCAR-5 ovarian) was over 100 µM. It also gave a GI50 (OVCAR-8 ovarian) of over 100 µM, a TGI (OVCAR-8 ovarian) of over 100 µM and a TGI (PC-3 prostate) of over 100 µM. The TGI (RPMI-8226 leukemia) was over 100 µM, the GI50 (RXF 393 renal) was over 100 µM and the TGI (RXF 393 renal) was over 100 µM. For the same molecule, the TGI (RXF-631 renal) was over 100 µM, the TGI (SF-268 CNS) was over 100 µM and the TGI (SF-295 CNS) was over 100 µM. It also gave a TGI (SF-539 CNS) of over 100 µM, a TGI (SK-MEL-2 melanoma) of over 100 µM and a TGI (SK-MEL-28 melanoma) of over 100 µM. It also gave a GI50 (SK-MEL-5 melanoma) of over 100 µM, a TGI (SK-MEL-5 melanoma) of over 100 µM and a TGI (SK-OV-3 ovarian) of over 100 µM. It also gave a TGI (SN12C renal) of over 100 µM, a GI50 (SNB-19 CNS) of over 100 µM and a TGI (SNB-19 CNS) of over 100 µM. The GI50 (SNB-75 CNS) was 7.07 µM, the TGI (SNB-75 CNS) was over 100 µM and the GI50 (SNB-78 CNS) was over 100 µM. It also gave a TGI (SNB-78 CNS) of over 100 µM, a GI50 (SR leukemia) of 40.6 µM and a TGI (SR leukemia) of over 100 µM. The GI50 (SW-620 colon) was over 100 µM, the TGI (SW-620 colon) was over 100 µM and the TGI (T-47D breast) was over 100 µM. The GI50 (TK-10 renal) was over 100 µM, the TGI (TK-10 renal) was over 100 µM and the GI50 (U251 CNS) was over 100 µM. For the same molecule, the TGI (U251 CNS) was over 100 µM, the GI50 (UACC-257 melanoma) was over 100 µM and the TGI (UACC-257 melanoma) was over 100 µM. The TGI (UACC-62 melanoma) was over 100 µM, the TGI (UO-31 renal) was over 100 µM and the GI50 (XF 498 CNS) was over 100 µM. It also gave a TGI (XF 498 CNS) of over 100 µM.

From PubChem BioAssay (NCI)
